# Assay results taken from paper PMC10018608 (Signal Transduction and Targeted Therapy, 2023).
# Like-named read-outs stand apart in the source and are kept apart here.
# Experiments:
# [1] = tested on: SARS-CoV-2 Omicron BA.1 (B.1.1.529.1); test: In vitro antiviral screening, viral genome copies by RT-qPCR in VeroE6-TMPRSS2; type: cell-based; settings: Omicron BA.1, VeroE6-TMPRSS2
# [2] = target: T1, CYP1A2 (Homo sapiens, UniProt P05177); test: biochemical; type: in vitro ADME; settings: CYP1A2 (Phenacetin), HLM
# T1 construct: Add 400 μL 0.2 mg/mL HLM; from tissue; host or cells: human liver microsomes (HLM)
# Procedure: (§1) Preheat 0.1 M pH 7.4 K/Mg-buffer at 37 °C. The reference inhibitors for this assay are α-Naphthoflavone (1A2), Ticlopidine (2B6), Montelukast (2C8), Sulfaphenazole (2C9), Omeprazole (2C19), Quinidine (2D6), Ketoconazole (3A4). Test compound and reference inhibitors were dissolved in ACN. NADPH cofactor was dissolved in K/Mg-buffer. Each CYP450 isoform was prepared 2 mL substrate (1A2: Phenacetin, 2B6: Amfebutamone HCl, 2C8: Paclitaxel, 2C9: Diclofenac, 2C19: S-Mephenytoin, 2D6: Dextromethorphan, 3A4: Midazolam and Testosterone). Add 400 μL 0.2 mg/mL HLM and 2 μL of test compound set (serially diluted) to the assay wells. And then add 30 μL HLM-compound mixture and 15 μL substrate solution in the 96-well assay plate on ice. Then incubate the 96-well assay plate at 37 °C for 5 min. Add 15 µL of pre-warmed (37 °C) 8 mM NADPH solution to initiate the enzyme reaction. Incubate the assay plate at 37 °C for 5–45 min and quench the reaction. Then collect samples for LC/MS analysis.
# [3] = target: T2, CYP2B6 (Homo sapiens, UniProt P20813); test: biochemical; type: in vitro ADME; settings: CYP2B6 (Bupropion), HLM
# T2 construct: Add 400 μL 0.2 mg/mL HLM; from tissue; host or cells: human liver microsomes (HLM)
# Procedure: as §1
# [4] = target: T3, CYP2C19 (Homo sapiens, UniProt P33261); test: biochemical; type: in vitro ADME; settings: CYP2C19 (S-Mephenytoin), HLM
# T3 construct: Add 400 μL 0.2 mg/mL HLM; from tissue; host or cells: human liver microsomes (HLM)
# Procedure: as §1
# [5] = target: T4, CYP2C8 (Homo sapiens, UniProt P10632); test: biochemical; type: in vitro ADME; settings: CYP2C8 (Paclitaxel), HLM
# T4 construct: Add 400 μL 0.2 mg/mL HLM; from tissue; host or cells: human liver microsomes (HLM)
# Procedure: as §1
# [6] = target: T5, CYP2C9 (Homo sapiens, UniProt P11712); test: biochemical; type: in vitro ADME; settings: CYP2C9 (Diclofenac), HLM
# T5 construct: Add 400 μL 0.2 mg/mL HLM; from tissue; host or cells: human liver microsomes (HLM)
# Procedure: as §1
# [7] = target: T6, CYP2D6 (Homo sapiens, UniProt P10635); test: biochemical; type: in vitro ADME; settings: CYP2D6 (Dextromethorphan), HLM
# T6 construct: Add 400 μL 0.2 mg/mL HLM; from tissue; host or cells: human liver microsomes (HLM)
# Procedure: as §1
# [8] = target: T7, CYP3A4 (Homo sapiens, UniProt P08684); test: biochemical; type: in vitro ADME
# T7 construct: Add 400 μL 0.2 mg/mL HLM; from tissue; host or cells: human liver microsomes (HLM)
# Procedure: as §1
# [9] = tested on: human plasma protein; test: in vitro; type: in vitro ADME; settings: human plasma, 1 μM, equilibrium dialysis 5 h
# [10] = target: T8, Human Cathepsin L (Homo sapiens, UniProt P07711); test: Mammalian proteases activity assay; type: biochemical
# T8 construct: purchased Biovision, USA
# Procedure: (§2) The mammalian proteases activity assay was analyzed using the assay kit (Biovision, USA) in triplicate by following manufacturer’s manual.
# [11] = target: T9, Neutrophil Elastase (Homo sapiens, UniProt P08246); test: Mammalian proteases activity assay; type: biochemical
# T9 construct: purchased Biovision, USA
# Procedure: as §2
# [12] = tested on: SARS-CoV-2 Omicron BA.2 sublineage; type: in vivo, K18-hACE2 transgenic mice
# [13] = SD rats
# [14] = Beagle Dog, i.v. (1 mg/kg)
# [15] = Monkey
# [16] = ICR Mice
# [17] = for Corpora lutea / Implantation sites / Live embryos / Resorptions: cesarean section observation; for appearance malformation rate (%): fetal appearance
# [18] = in vivo; settings: male, beagle, dog
# [19] = in vivo; settings: male, cynomolgus monkey
# [20] = target: hERG channel (Homo sapiens, UniProt Q12809); test: cell-based
# [21] = female, SD, rat, in vivo, 1000 mg/kg
# T7 sequence (P08684 whole entry): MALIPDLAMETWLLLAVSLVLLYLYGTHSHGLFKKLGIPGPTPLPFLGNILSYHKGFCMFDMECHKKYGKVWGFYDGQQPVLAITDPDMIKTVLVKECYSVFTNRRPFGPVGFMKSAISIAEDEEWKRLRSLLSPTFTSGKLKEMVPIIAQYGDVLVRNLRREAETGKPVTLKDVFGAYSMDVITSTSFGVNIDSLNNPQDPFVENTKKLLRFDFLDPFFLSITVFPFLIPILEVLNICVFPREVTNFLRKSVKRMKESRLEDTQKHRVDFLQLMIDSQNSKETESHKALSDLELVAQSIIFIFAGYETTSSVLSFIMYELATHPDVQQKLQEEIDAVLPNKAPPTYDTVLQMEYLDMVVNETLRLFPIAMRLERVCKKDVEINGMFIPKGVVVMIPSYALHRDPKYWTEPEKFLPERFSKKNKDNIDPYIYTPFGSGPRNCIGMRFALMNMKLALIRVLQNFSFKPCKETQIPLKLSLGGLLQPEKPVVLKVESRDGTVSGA
# T4 sequence (P10632 whole entry): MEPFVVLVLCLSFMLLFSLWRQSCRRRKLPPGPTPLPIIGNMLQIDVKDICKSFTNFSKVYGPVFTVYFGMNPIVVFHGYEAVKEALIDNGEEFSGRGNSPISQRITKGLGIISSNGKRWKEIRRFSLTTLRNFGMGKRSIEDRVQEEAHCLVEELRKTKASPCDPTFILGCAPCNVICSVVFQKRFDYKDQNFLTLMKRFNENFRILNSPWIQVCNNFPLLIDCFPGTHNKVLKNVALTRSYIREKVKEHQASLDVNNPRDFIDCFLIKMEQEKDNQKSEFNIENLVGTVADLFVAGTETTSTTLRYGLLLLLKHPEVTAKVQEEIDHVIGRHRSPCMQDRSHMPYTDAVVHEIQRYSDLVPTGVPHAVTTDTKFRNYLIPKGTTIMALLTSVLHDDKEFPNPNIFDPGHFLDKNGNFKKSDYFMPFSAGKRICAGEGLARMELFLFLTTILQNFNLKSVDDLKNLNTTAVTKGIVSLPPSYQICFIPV
# T3 sequence (P33261 whole entry): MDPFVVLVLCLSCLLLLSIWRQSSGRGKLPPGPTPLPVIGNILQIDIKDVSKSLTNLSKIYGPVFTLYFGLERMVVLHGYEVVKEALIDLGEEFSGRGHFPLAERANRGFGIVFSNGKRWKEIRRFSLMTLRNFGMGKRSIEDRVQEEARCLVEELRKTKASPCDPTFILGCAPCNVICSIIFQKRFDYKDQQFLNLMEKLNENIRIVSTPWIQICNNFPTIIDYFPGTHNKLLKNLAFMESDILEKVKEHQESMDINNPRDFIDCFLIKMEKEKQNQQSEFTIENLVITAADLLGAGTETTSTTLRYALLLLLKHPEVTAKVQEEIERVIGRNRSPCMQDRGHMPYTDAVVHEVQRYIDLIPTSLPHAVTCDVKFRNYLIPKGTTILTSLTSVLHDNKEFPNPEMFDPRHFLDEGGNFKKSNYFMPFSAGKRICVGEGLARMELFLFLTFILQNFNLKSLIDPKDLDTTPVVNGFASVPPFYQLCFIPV
# hERG channel, sequence (Q12809 whole entry): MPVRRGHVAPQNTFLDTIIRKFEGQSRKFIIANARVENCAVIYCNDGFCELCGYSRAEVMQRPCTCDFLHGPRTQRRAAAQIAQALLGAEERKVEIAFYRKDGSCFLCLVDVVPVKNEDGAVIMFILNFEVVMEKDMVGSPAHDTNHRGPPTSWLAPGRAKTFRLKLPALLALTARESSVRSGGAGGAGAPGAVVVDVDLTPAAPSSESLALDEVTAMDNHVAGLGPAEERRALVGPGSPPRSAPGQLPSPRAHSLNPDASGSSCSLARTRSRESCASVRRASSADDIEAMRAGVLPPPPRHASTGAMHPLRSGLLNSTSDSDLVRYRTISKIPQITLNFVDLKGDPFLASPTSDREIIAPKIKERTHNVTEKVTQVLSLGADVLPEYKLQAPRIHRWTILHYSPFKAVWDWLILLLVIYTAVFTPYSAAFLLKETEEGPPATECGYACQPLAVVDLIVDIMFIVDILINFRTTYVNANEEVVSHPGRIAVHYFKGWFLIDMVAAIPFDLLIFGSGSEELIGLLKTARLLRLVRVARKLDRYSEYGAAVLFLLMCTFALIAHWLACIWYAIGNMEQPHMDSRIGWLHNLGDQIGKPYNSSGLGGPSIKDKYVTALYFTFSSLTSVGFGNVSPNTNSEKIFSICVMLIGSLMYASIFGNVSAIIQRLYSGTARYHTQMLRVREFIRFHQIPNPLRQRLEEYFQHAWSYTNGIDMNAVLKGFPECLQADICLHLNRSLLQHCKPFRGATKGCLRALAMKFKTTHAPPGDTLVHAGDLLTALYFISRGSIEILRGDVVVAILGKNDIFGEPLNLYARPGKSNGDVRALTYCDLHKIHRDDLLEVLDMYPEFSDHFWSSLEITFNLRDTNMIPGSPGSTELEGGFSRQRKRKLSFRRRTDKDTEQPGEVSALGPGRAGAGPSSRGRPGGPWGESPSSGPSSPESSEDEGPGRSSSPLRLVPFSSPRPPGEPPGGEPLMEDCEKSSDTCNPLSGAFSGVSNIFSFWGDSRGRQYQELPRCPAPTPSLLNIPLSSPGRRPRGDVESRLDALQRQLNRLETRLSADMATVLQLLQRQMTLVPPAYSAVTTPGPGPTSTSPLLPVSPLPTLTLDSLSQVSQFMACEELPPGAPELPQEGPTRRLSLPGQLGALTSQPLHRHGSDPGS
# T6 sequence (P10635 whole entry): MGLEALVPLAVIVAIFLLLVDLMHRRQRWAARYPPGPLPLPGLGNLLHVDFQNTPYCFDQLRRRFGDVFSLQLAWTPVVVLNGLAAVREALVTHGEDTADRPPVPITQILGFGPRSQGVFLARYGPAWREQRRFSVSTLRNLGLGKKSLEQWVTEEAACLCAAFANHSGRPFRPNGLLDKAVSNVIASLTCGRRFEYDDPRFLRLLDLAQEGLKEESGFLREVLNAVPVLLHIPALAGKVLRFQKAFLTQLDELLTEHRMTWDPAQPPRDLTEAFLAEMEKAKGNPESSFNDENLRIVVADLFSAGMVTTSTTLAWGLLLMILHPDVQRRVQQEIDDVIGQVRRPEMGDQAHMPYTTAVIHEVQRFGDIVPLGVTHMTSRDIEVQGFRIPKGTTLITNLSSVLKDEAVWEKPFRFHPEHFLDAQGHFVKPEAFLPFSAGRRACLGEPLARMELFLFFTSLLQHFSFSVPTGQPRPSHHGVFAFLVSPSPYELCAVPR
# T9 sequence (P08246 30-267): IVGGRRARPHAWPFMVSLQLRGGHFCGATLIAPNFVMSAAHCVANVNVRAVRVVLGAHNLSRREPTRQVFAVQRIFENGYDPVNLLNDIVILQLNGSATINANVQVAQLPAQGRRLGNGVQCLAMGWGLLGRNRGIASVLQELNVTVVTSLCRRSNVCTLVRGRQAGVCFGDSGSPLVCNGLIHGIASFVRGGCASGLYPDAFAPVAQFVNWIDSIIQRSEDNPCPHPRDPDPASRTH
# T1 sequence (P05177 whole entry): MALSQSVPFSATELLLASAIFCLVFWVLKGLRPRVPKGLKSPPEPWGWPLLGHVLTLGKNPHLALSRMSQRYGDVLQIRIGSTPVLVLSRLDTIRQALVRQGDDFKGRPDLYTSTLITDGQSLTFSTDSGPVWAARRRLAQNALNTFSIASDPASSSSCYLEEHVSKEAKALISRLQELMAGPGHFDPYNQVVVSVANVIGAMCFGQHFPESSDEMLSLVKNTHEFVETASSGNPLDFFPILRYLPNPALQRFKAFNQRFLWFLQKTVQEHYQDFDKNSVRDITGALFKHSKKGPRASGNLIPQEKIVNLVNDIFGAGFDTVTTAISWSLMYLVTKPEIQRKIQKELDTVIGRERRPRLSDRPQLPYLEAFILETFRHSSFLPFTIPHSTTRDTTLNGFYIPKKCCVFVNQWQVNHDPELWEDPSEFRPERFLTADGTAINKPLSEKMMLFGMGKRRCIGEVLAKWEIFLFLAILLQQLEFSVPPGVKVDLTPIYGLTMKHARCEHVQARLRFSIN
# T8 sequence (P07711 114-333): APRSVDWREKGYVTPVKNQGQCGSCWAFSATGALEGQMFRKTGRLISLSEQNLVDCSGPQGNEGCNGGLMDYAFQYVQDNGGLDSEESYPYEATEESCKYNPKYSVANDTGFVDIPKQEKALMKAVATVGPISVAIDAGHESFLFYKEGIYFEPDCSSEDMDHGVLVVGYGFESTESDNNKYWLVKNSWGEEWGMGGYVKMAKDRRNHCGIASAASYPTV
# T2 sequence (P20813 whole entry): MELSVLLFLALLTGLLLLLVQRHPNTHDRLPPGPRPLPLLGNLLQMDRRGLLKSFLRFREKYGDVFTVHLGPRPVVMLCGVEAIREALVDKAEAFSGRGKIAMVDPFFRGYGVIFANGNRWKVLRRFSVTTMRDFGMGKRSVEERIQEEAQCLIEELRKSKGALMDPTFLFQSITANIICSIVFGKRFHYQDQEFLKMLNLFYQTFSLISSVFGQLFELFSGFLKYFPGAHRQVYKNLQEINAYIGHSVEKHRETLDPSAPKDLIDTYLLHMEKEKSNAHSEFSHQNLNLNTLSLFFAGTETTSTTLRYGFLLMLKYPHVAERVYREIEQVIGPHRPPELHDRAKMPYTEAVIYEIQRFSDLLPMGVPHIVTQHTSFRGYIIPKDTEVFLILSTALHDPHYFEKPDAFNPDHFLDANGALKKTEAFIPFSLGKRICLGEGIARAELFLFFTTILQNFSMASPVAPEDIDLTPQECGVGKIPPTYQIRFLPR
compound,measurement,setting,value
"COC[C@@H](NC(=O)C1CCCC(F)(F)C1)C(=O)N[C@H](Cc1ccccc1)C(=O)C(=O)NCc1nccs1 (stereo partly drawn) [SY110, N-((R)-1-(((R)-3,4-dioxo-1-phenyl-4-((thiazol-2-ylmethyl)amino)butan-2-yl)amino)-3-methoxy-1-oxopropan-2-yl)-3,3-difluorocyclohexane-1-carboxamide]",antiviral activity among the six compounds tested,[1],most potent antiviral activity
same,IC50,[2],> 30 µM
same,IC50,[3],> 30 µM
same,IC50,[4],> 30 µM
same,IC50,[5],> 30 µM
same,IC50,[6],> 30 µM
same,IC50,[7],> 30 µM
same,IC50,"[8]; CYP3A4 (Midazolam), HLM",> 30 µM
same,IC50,"[8]; CYP3A4 (Testosterone), HLM",> 30 µM
same,IC50,"[8]; CYP3A4, text, substrate not stated there",> 30 µM
same,Fraction of Bound (%),[9],69.9%
same,IC50,[10],> 100 µM
same,IC50,[11],> 100 µM
same,"lung pathology, H&E staining","[12]; mouse, in vivo",only scattered inflammatory cell infiltrates can be occasionally found in the alveolar interstitium
same,viral N protein expression in the lung tissue,"[12]; mouse, in vivo",substantially reduced the viral N protein expression
same,production of the infectious virus particles in the lung,"[12]; plaque assays, therapeutic treatment",effectively suppressed
same,MTRlast,[13]; i.v. (1 mg/kg),2.34 ± 0.22 h
same,Vzobs,[13]; i.v. (1 mg/kg),3.03 ± 0.71 L/kg
same,MTRlast,[13]; p.o. (10 mg/kg),6.60 ± 0.89 h
same,MTRlast,[14],0.47 ± 0.05 h
same,MTRlast,[15]; i.v. (1 mg/kg),0.90 ± 0.18 h
same,MTRlast,[15]; p.o. (10 mg/kg),4.71 ± 0.89 h
same,MTRlast,[16]; i.v. (1 mg/kg),0.17 ± 0.03 h
same,Vzobs,[16]; i.v. (1 mg/kg),4.27 ± 2.29 L/kg
same,MTRlast,[16]; p.o. (150 mg/kg),3.62 ± 1.18 h
same,"Results, acute toxicity study","mice, p.o., 1000 mg/kg, single dose",No mice died
same,maximal tolerated single dose,text says rats,at least 1.0 g/kg
same,Abnormal initial position of common carotid artery,[17]; [21],0.0 ± 0.0
same,Abnormal initial position of subclavian artery,[17]; [21],0.0 ± 0.0
same,Abnormal position of umbilical artery,[17]; [21],0.0 ± 0.0
same,Absent of aortic arch,[17]; [21],0.0 ± 0.0
same,Absent of innominate artery,[17]; [21],0.0 ± 0.0
same,Rib: 14 Ribs – [V],[17]; [21],6.9 ± 10.1
same,Rib: Shortened #13 – [V],[17]; [21],2.9 ± 6.4
same,"Skull: Interparietal bone, incomplete ossification – [V]",[17]; [21],0.0 ± 0.0
same,"Skull: Parietal bone, incomplete ossification – [V]",[17]; [21],0.0 ± 0.0
same,Visceral malformation rate (%),[17]; [21],0.0 ± 0.0%
same,Corpora lutea,"[17]; rat, 100 mg/kg",16.2 ± 2.1
same,Implantation sites,"[17]; rat, 100 mg/kg",15.0 ± 3.5
same,Live embryos,"[17]; rat, 100 mg/kg",14.5 ± 3.6
same,Resorptions,"[17]; rat, 100 mg/kg",0.5 ± 0.8
same,Corpora lutea,"[17]; rat, 300 mg/kg",17.7 ± 1.5
same,Implantation sites,"[17]; rat, 300 mg/kg",16.9 ± 1.5
same,Live embryos,"[17]; rat, 300 mg/kg",16.3 ± 1.6
same,Resorptions,"[17]; rat, 300 mg/kg",0.6 ± 0.5
same,Corpora lutea,"[17]; rat, 1000 mg/kg",17.4 ± 2.5
same,Implantation sites,"[17]; rat, 1000 mg/kg",17.0 ± 2.5
same,Live embryos,"[17]; rat, 1000 mg/kg",16.4 ± 2.1
same,Resorptions,"[17]; rat, 1000 mg/kg",0.6 ± 0.9
same,appearance malformation rate (%),"[17]; rat, 100 mg/kg",0.0 ± 0.0%
same,appearance malformation rate (%),"[17]; rat, 300 mg/kg",0.0 ± 0.0%
same,appearance malformation rate (%),"[17]; rat, 1000 mg/kg",0.0 ± 0.0%
same,embryo-fetal development study outcome,"[17]; rats, 1000 mg/kg/day (the highest dose tested)","no observed SY110-related maternal toxicity, reproductive toxicity, and effect on embryo-fetal viability"
same,AUC(0-inf),"[18]; iv, 1 mg/kg",628 ± 113 ng·h/mL
same,AUC(0-t),"[18]; iv, 1 mg/kg",624 ± 113 ng·h/mL
same,Cmax,"[18]; iv, 1 mg/kg",1270 ± 333 ng/mL
same,Tmax,"[18]; iv, 1 mg/kg",4.98 min
same,clearance,"[18]; iv, 1 mg/kg",27.1 mL/min/kg
same,half-life,"[18]; iv, 1 mg/kg",36.6 ± 3 min
same,AUC(0-inf),"[18]; po, 10 mg/kg",8290 ± 378 ng·h/mL
same,AUC(0-t),"[18]; po, 10 mg/kg",8240 ± 370 ng·h/mL
same,Cmax,"[18]; po, 10 mg/kg",3060 ± 136 ng/mL
same,Tmax,"[18]; po, 10 mg/kg",60 min
same,bioavailability,"[18]; po, 10 mg/kg",132%
same,half-life,"[18]; po, 10 mg/kg",335 ± 74.4 min
same,AUC(0-inf),"[19]; iv, 1 mg/kg",506 ± 60.7 ng·h/mL
same,AUC(0-t),"[19]; iv, 1 mg/kg",501 ± 59.9 ng·h/mL
same,Cmax,"[19]; iv, 1 mg/kg",567 ± 38.2 ng/mL
same,Tmax,"[19]; iv, 1 mg/kg",4.8 min
same,clearance,"[19]; iv, 1 mg/kg",33.3 mL/min/kg
same,half-life,"[19]; iv, 1 mg/kg",43.8 ± 12 min
same,AUC(0-t),"[19]; po, 10 mg/kg",1220 ± 56.8 ng·h/mL
same,Cmax,"[19]; po, 10 mg/kg",242 ± 54.2 ng/mL
same,Tmax,"[19]; po, 10 mg/kg",140 ± 91.8 min
same,bioavailability,"[19]; po, 10 mg/kg",24.4%
same,half-life,"[19]; po, 10 mg/kg",334 ± 63 min
same,IC50,[20],> 30 µM
